Experimental data from ChEMBL document CHEMBL1201862, “PubChem BioAssay data set” (2004).
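Compound exposure: 48 hours, 5 concentrations, 96-well plates. Here, GI50 denotes the concentration required for 50% inhibition of growth.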 Calls of active or inactive are those of the source. Rule as the data show it: active = GI50 up to about 1.1 µM and inactive = higher.

Columns and labels:
Assay in all cases: NCI-60 cell line screen, 48 h
[1] = tested on: A498
[2] = tested on: A549
[3] = tested on: CCRF-CEM
[4] = tested on: EKVX
[5] = tested on: HCT-116
[6] = tested on: HOP-62
[7] = tested on: HT-29
[8] = tested on: KM12
[9] = tested on: MDA-MB-231
[10] = tested on: MDA-N
[11] = tested on: OVCAR-5
[12] = tested on: OVCAR-8
[13] = tested on: RPMI-8226
[14] = tested on: SK-MEL-28
[15] = tested on: TK-10
[16] = tested on: UACC-257
[17] = tested on: OVCAR-3
[18] = tested on: SF-268
[19] = tested on: MDA-MB-435

O=S(=O)(/N=C1/S/C(=N\c2ccccc2)N(c2ccccc2)/C1=N/S(=O)(=O)c1ccccc1)c1ccccc1
GI50 [1]: 11.4 µM (inactive)
GI50 [2]: 22.6 µM (inactive)
GI50 [3]: 28.7 µM (inactive)
GI50 [4]: 21.5 µM (inactive)
GI50 [5]: 17.6 µM (inactive)
GI50 [6]: 28.5 µM (inactive)
GI50 [7]: 22.8 µM (inactive)
GI50 [8]: 19.4 µM (inactive)
GI50 [9]: 13.7 µM (inactive)
GI50 [10]: 16.6 µM (inactive)
GI50 [11]: 20.8 µM (inactive)
GI50 [12]: 22.8 µM (inactive)
GI50 [13]: 17.7 µM (inactive)
GI50 [14]: 16.6 µM (inactive)
GI50 [15]: 30.4 µM (inactive)
GI50 [16]: 19.1 µM (inactive)

COC(=O)NN=C1C(C)(C)C(=O)C1(C)C
GI50 [1]: > 100 µM (inactive)
GI50 [2]: > 100 µM (inactive)
GI50 [3]: > 100 µM (inactive)
GI50 [4]: > 100 µM (inactive)
GI50 [5]: > 100 µM (inactive)
GI50 [6]: > 100 µM (inactive)
GI50 [7]: > 100 µM (inactive)
GI50 [8]: > 100 µM (inactive)
GI50 [17]: > 100 µM (inactive)
GI50 [11]: > 100 µM (inactive)
GI50 [12]: > 100 µM (inactive)
GI50 [13]: > 100 µM (inactive)
GI50 [18]: > 100 µM (inactive)
GI50 [14]: > 100 µM (inactive)
GI50 [15]: > 100 µM (inactive)
GI50 [16]: > 100 µM (inactive)

COc1cc2c(cc1O)-c1c(cnn1-c1ccc([N+](=O)[O-])cc1)CCC2
GI50 [1]: 23 µM (inactive)
GI50 [2]: 12.7 µM (inactive)
GI50 [3]: 2.94 µM (inactive)
GI50 [4]: 28.1 µM (inactive)
GI50 [5]: 18.3 µM (inactive)
GI50 [6]: 21.9 µM (inactive)
GI50 [7]: 16.4 µM (inactive)
GI50 [8]: 12.6 µM (inactive)
GI50 [9]: 12 µM (inactive)
GI50 [19]: 17.4 µM (inactive)
GI50 [17]: 16.7 µM (inactive)
GI50 [11]: 22.4 µM (inactive)
GI50 [12]: 19.7 µM (inactive)
GI50 [13]: 4.76 µM (inactive)
GI50 [18]: 8.95 µM (inactive)
GI50 [14]: 20.4 µM (inactive)
GI50 [15]: 8.83 µM (inactive)
GI50 [16]: 15.5 µM (inactive)

CC1=NN(c2nc(N)nc(CS(C)(=O)=O)n2)C(C)(C)C1
GI50 [1]: > 100 µM (inactive)
GI50 [3]: > 100 µM (inactive)
GI50 [4]: > 100 µM (inactive)
GI50 [5]: > 100 µM (inactive)
GI50 [6]: > 100 µM (inactive)
GI50 [7]: > 100 µM (inactive)
GI50 [8]: > 100 µM (inactive)
GI50 [9]: > 100 µM (inactive)
GI50 [19]: > 100 µM (inactive)
GI50 [12]: > 100 µM (inactive)
GI50 [13]: > 100 µM (inactive)
GI50 [18]: > 100 µM (inactive)
GI50 [14]: > 100 µM (inactive)
GI50 [15]: > 100 µM (inactive)
GI50 [16]: > 100 µM (inactive)

CSc1nc(NC(C)C)c2c(n1)Sc1nc3ccccc3n1C2O (configuration not stated)
GI50 [2]: 3.41 µM (inactive)
GI50 [3]: 1.75 µM (inactive)
GI50 [4]: 11.5 µM (inactive)
GI50 [5]: 4.13 µM (inactive)
GI50 [6]: 6.37 µM (inactive)
GI50 [7]: 3.09 µM (inactive)
GI50 [8]: 3.01 µM (inactive)
GI50 [9]: 9.14 µM (inactive)
GI50 [19]: 1.74 µM (inactive)
GI50 [10]: 2.75 µM (inactive)
GI50 [17]: 2.51 µM (inactive)
GI50 [12]: 4.9 µM (inactive)
GI50 [13]: 0.0432 µM (active)
GI50 [18]: 4.43 µM (inactive)
GI50 [14]: 3.34 µM (inactive)
GI50 [15]: 14.3 µM (inactive)
GI50 [16]: 40.9 µM (inactive)

Cc1cc(-c2no[n+]([O-])c2-c2cc(C)sc2S(C)(=O)=O)c(S(C)(=O)=O)s1
GI50 [1]: > 100 µM (inactive)
GI50 [3]: > 100 µM (inactive)
GI50 [4]: > 100 µM (inactive)
GI50 [5]: > 100 µM (inactive)
GI50 [6]: > 100 µM (inactive)
GI50 [7]: > 100 µM (inactive)
GI50 [8]: > 100 µM (inactive)
GI50 [9]: > 100 µM (inactive)
GI50 [19]: > 100 µM (inactive)
GI50 [17]: > 100 µM (inactive)
GI50 [11]: > 100 µM (inactive)
GI50 [12]: > 100 µM (inactive)
GI50 [13]: > 100 µM (inactive)
GI50 [18]: > 100 µM (inactive)
GI50 [14]: > 100 µM (inactive)
GI50 [15]: > 100 µM (inactive)

O=S(=O)(Nc1ccc2ccc3cccc4ccc1c2c34)c1ccccc1
GI50 [2]: 52.8 µM (inactive)
GI50 [3]: 14.1 µM (inactive)
GI50 [4]: > 100 µM (inactive)
GI50 [5]: 30.8 µM (inactive)
GI50 [6]: 33.3 µM (inactive)
GI50 [7]: 49.2 µM (inactive)
GI50 [8]: 9.98 µM (inactive)
GI50 [9]: 30.8 µM (inactive)
GI50 [19]: 3.82 µM (inactive)
GI50 [17]: 8.26 µM (inactive)
GI50 [11]: > 100 µM (inactive)
GI50 [12]: > 100 µM (inactive)
GI50 [13]: 6.34 µM (inactive)
GI50 [18]: 43.6 µM (inactive)
GI50 [14]: > 100 µM (inactive)
GI50 [15]: 38.2 µM (inactive)
GI50 [16]: 58.7 µM (inactive)

O=c1oc2ccc3ccccc3c2cc1-c1nnc(Nc2ccccc2)s1
GI50 [1]: 1.27 µM (inactive)
GI50 [2]: 31.4 µM (inactive)
GI50 [4]: 46.5 µM (inactive)
GI50 [5]: 22.5 µM (inactive)
GI50 [7]: 41 µM (inactive)
GI50 [8]: 50.7 µM (inactive)
GI50 [9]: 18.2 µM (inactive)
GI50 [19]: 78.3 µM (inactive)
GI50 [17]: 17.4 µM (inactive)
GI50 [11]: > 100 µM (inactive)
GI50 [13]: 20.1 µM (inactive)
GI50 [18]: 61.8 µM (inactive)
GI50 [15]: 16.9 µM (inactive)
GI50 [16]: > 100 µM (inactive)

NNC(=O)CC(=O)Nc1ccc(S(=O)(=O)c2ccc(NC(=O)CC(=O)NN)cc2)cc1
GI50 [1]: > 100 µM (inactive)
GI50 [2]: > 100 µM (inactive)
GI50 [3]: > 100 µM (inactive)
GI50 [4]: > 100 µM (inactive)
GI50 [5]: > 100 µM (inactive)
GI50 [6]: > 100 µM (inactive)
GI50 [7]: > 100 µM (inactive)
GI50 [8]: > 100 µM (inactive)
GI50 [9]: > 100 µM (inactive)
GI50 [19]: > 100 µM (inactive)
GI50 [17]: > 100 µM (inactive)
GI50 [11]: > 100 µM (inactive)
GI50 [12]: > 100 µM (inactive)
GI50 [13]: > 100 µM (inactive)
GI50 [18]: > 100 µM (inactive)
GI50 [14]: > 100 µM (inactive)
GI50 [15]: > 100 µM (inactive)
GI50 [16]: > 100 µM (inactive)

CN(Cc1cnc2nc(N)nc(N)c2n1)c1ccc(C(=O)NC(CCC(=O)NC(CC(P(=O)(O)O)P(=O)(O)O)C(=O)O)C(=O)O)cc1 (configuration not stated)
GI50 [2]: > 100 µM (inactive)
GI50 [4]: > 100 µM (inactive)
GI50 [5]: > 100 µM (inactive)
GI50 [6]: > 100 µM (inactive)
GI50 [7]: > 100 µM (inactive)
GI50 [9]: > 100 µM (inactive)
GI50 [19]: > 100 µM (inactive)
GI50 [10]: > 100 µM (inactive)
GI50 [17]: > 100 µM (inactive)
GI50 [11]: > 100 µM (inactive)
GI50 [12]: > 100 µM (inactive)
GI50 [18]: > 100 µM (inactive)
GI50 [14]: > 100 µM (inactive)
GI50 [15]: > 100 µM (inactive)
GI50 [16]: > 100 µM (inactive)

O=C(/C=N/c1ccccc1C(=O)[O-])c1cccs1.O=C(/C=N/c1ccccc1C(=O)[O-])c1cccs1.[Zn+2]
GI50 [1]: > 100 µM (inactive)
GI50 [2]: 73.8 µM (inactive)
GI50 [3]: 23.7 µM (inactive)
GI50 [5]: > 100 µM (inactive)
GI50 [6]: > 100 µM (inactive)
GI50 [7]: > 100 µM (inactive)
GI50 [8]: > 100 µM (inactive)
GI50 [17]: 15.4 µM (inactive)
GI50 [11]: 24.7 µM (inactive)
GI50 [12]: 36.1 µM (inactive)
GI50 [18]: 27.4 µM (inactive)
GI50 [14]: 39.5 µM (inactive)
GI50 [15]: > 100 µM (inactive)
GI50 [16]: 20.3 µM (inactive)

COC(=O)C1(C(=O)OC)N=C(C)OC1c1ccccn1 (configuration not stated)
GI50 [1]: > 100 µM (inactive)
GI50 [2]: > 100 µM (inactive)
GI50 [3]: > 100 µM (inactive)
GI50 [4]: > 100 µM (inactive)
GI50 [5]: > 100 µM (inactive)
GI50 [6]: > 100 µM (inactive)
GI50 [8]: > 100 µM (inactive)
GI50 [19]: > 100 µM (inactive)
GI50 [10]: > 100 µM (inactive)
GI50 [17]: > 100 µM (inactive)
GI50 [11]: > 100 µM (inactive)
GI50 [12]: > 100 µM (inactive)
GI50 [13]: > 100 µM (inactive)
GI50 [14]: > 100 µM (inactive)
GI50 [15]: > 100 µM (inactive)
GI50 [16]: > 100 µM (inactive)
